Patent publication US20110281854A1, “MORPHOLINE COMPOUNDS” (Pfizer Inc, priority 2010, published 2011)
pIC50: −log10 of the molar value.

The compounds below were run against T1, MR (Homo sapiens, UniProt P08235) (assay: Cell-based reporter assay (Gal4-MR-LBD luciferase, antagonist mode)). Settings: not given.
T1 construct: expressed in transfected cells; host or cells: Huh7 human liver cells (ATCC), transient transfection with FuGENE 6
T1 sequence (P08235 726-964 limits assumed): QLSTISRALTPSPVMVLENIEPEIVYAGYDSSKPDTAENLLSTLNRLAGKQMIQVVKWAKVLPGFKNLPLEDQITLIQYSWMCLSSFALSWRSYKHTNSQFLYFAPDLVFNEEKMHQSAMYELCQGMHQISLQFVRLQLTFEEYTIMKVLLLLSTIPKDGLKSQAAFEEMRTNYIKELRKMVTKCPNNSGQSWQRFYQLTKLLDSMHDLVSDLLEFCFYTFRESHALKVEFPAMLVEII
Experimental: To measure the ability of test compound in the present invention to modulate the activity of MR (agonize, antagonize, partially agonize, partially antagonize), bioassays were performed that measured the modulation of reporter gene expression. Cells were transiently transfected with a luciferase reporter gene under the control of a Gal4 response element (Gal4-RE-luc) and a plasmid containing the Gal4 DNA binding domain fused to the MR ligand binding domain (Gal4-MR-LBD). Agonists can bind to and activate the MR-LBD, which activates the expression of the luciferase reporter gene through interaction with the Gal4 response element. […] Antagonists can compete for binding to the NHR-LBD and decrease the agonist-induced transcriptional activity of the reporter gene. Therefore, measurement of luciferase activity allowed quantitative determinations of the reporter transcription in the presence of either agonists or competitive antagonists.
The final concentration of DMSO in the test plate was 0.5%. Following an overnight incubation with compound, 25 μL of Steady-Glow™ lysis buffer with luciferase substrate (Promega Corporation, E2550) was added directly to the cells. After a 30-minute incubation to completely lyse the cells, the microplates were counted in an Envision™ Multilabel Reader (Perkin Elmer) in single photon counting mode.
Work on N#CC[C@@H]1CN(c2ccc3c(n2)NC(=O)CO3)[C@H](c2ccccc2)CO1 [Example 40, 2-((2R,5R)-4-(3-oxo-3,4-dihydro-2H-pyrido[3,2-b][1,4]oxazin-6-yl)-5-phenylmorpholin-2-yl)acetonitrile] yielded a pIC50 of 7.01. O=C1COc2ccc(N3CCOC[C@@H]3c3ccccc3)cc2N1 [Example 41, (S)-6-(3-phenylmorpholino)-2H-benzo[b][1,4]oxazin-3(4H)-one] showed a pIC50 of 5.28. C[C@@H]1CN(c2ncc3c(n2)NC(=O)CO3)[C@H](c2ccccc2)[C@H](C)O1 [Example 42, 2-((2S,3R,6R)-2,6-dimethyl-3-phenylmorpholino)-6H-pyrimido[5,4-b][1,4]oxazin-7(8H)-one] was tested, and the pIC50 was 6.28. C[C@@H]1CN(c2cc3c(cn2)OCC(=O)N3)[C@H](c2ccccc2)[C@H](C)O1 [Example 43, 7-((2S,3R,6R)-2,6-dimethyl-3-phenylmorpholino)-1H-pyrido[3,4-b][1,4]oxazin-2(3H)-one] was tested, and the pIC50 was 6.40. With O=C1COc2cnc(N3C[C@@H](C4CC4)OC[C@H]3c3ccccc3)nc2N1 [Example 44, 2-((2R,5R)-2-cyclopropyl-5-phenylmorpholino)-6H-pyrimido[5,4-b][1,4]oxazin-7(8H)-one] the pIC50 was 5.91. C[C@@H]1CN(c2ccc3oc(=O)[nH]c3c2)[C@H](c2ccccc2)CO1 [Example 45, 5-((2R,5R)-2-methyl-5-phenylmorpholino)benzo[d]oxazol-2(3H)-one] was tested, and the pIC50 was 6.46. C[C@@H]1CN(c2cc3c(cn2)OCC(=O)N3)[C@H](c2ccccc2)CO1 [Example 46, 7-((2R,5R)-2-methyl-5-phenylmorpholino)-1H-pyrido[3,4-b][1,4]oxazin-2(3H)-one] was tested, and the pIC50 was 6.60. With C[C@@H]1CN(c2ccc3c(c2)NS(=O)(=O)CO3)[C@H](c2ccccc2)CO1 [Example 47, 7-[(2R,5R)-2-methyl-5-phenylmorpholin-4-yl]-1H-4,2,1-benzoxathiazine 2,2-dioxide] the pIC50 was 5.79. C[C@@H]1CN(c2ccc3c(n2)NC(=O)CO3)[C@H](c2ccc(F)cc2F)CO1 [Example 52, 6-((2R,5R)-5-(2,4-difluorophenyl)-2-methylmorpholino)-2H-pyrido[3,2-b][1,4]oxazin-3(4H)-one] gave a pIC50 of 6.56. CC1(C)OCCN(c2ccc3c(n2)NC(=O)CO3)C1c1ccccc1 (stereo not drawn) [Example 53, 6-(2,2-dimethyl-3-phenylmorpholino)-2H-pyrido[3,2-b][1,4]oxazin-3(4H)-one] showed a pIC50 of 5.13. With C[C@@H]1CN(c2ccc3c(n2)NC(=O)CO3)C[C@@H](C)O1 [Example 54, 6-((2R,6R)-2,6-dimethylmorpholino)-2H-pyrido[3,2-b][1,4]oxazin-3(4H)-one] the pIC50 was 5.55. C[C@@H]1CN(c2ncc3c(n2)NC(=O)CO3)[C@H](c2ccc(F)cc2)CO1 [Example 55, 2-((2R,5R)-5-(4-fluorophenyl)-2-methylmorpholino)-6H-pyrimido[5,4-b][1,4]oxazin-7(8H)-one] was tested, and the pIC50 was 6.31. For CC[C@@H]1CN(c2ccc3c(n2)NC(=O)CO3)C[C@H](CC)O1 [Example 57, 6-(cis-2,6-diethylmorpholino)-2H-pyrido[3,2-b][1,4]oxazin-3(4H)-one], the pIC50 was 5.33. For C[C@@H]1CN(c2cnc3c(c2)NC(=O)CO3)[C@H](c2ccccc2)CO1 [Example 58, 7-((2R,5R)-2-methyl-5-phenylmorpholino)-1H-pyrido[2,3-b][1,4]oxazin-2(3H)-one], the pIC50 was 5.52. For C[C@@H]1CN(c2ccc3ccc(=O)[nH]c3c2)[C@H](c2ccccc2)CO1 [Example 59, 7-((2R,5R)-2-methyl-5-phenylmorpholino)quinolin-2(1H)-one], the pIC50 was 6.15. C[C@@H]1CN(c2nc3c(cc2C#N)OCC(=O)N3)[C@H](c2ccccc2)CO1 [Example 60, 6-((2R,5R)-2-methyl-5-phenylmorpholino)-3-oxo-3,4-dihydro-2H-pyrido[3,2-b][1,4]oxazine-7-carbonitrile] showed a pIC50 of 5.02. With C[C@@H]1CN(c2cc3c(cn2)OCC(=O)N3)[C@H](c2ccc(F)cc2)CO1 [Example 61, 7-((2R,5R)-5-(4-fluorophenyl)-2-methylmorpholino)-1H-pyrido[3,4-b][1,4]oxazin-2(3H)-one] the pIC50 was 6.19. Cc1c(NS(C)(=O)=O)cccc1N1C[C@@H](C)OC[C@H]1c1ccccc1 [Example 63, N-(2-methyl-3-((2R,5R)-2-methyl-5-phenylmorpholino)phenyl)methanesulfonamide] gave a pIC50 of 5.37. With Cc1nc(N2C[C@@H](C)OC[C@H]2c2ccccc2)nc2c1OCC(=O)N2 [Example 68, 4-methyl-2-((2R,5R)-2-methyl-5-phenylmorpholino)-6H-pyrimido[5,4-b][1,4]oxazin-7(8H)-one] the pIC50 was 5.64. C[C@@H]1CN(c2ccc3c(n2)NC(=O)CO3)[C@H](c2ccccc2)[C@H](C)O1 [Example 69, 6-((2S,3R,6R)-2,6-dimethyl-3-phenylmorpholino)-2H-pyrido[3,2-b][1,4]oxazin-3(4H)-one] showed a pIC50 of 6.69. O=C1COc2ccc(N3CC4(COC4)OC[C@H]3c3ccccc3)nc2N1 [Example 70, (R)-6-(7-phenyl-2,5-dioxa-8-azaspiro[3.5]nonan-8-yl)-2H-pyrido[3,2-b][1,4]oxazin-3(4H)-one] showed a pIC50 of 6.20. For C[C@@H]1CN(c2ccc3c(n2)NC(=O)CO3)[C@H](C)CO1 [Example 71, 6-((2R,5R)-2,5-dimethylmorpholino)-2H-pyrido[3,2-b][1,4]oxazin-3(4H)-one], the pIC50 was 5.71. With O=C1COc2ccc(N3CCOC4(CCCc5ccccc54)C3)cc2N1 (stereo not drawn) [Example 72, 6-(3′,4′-dihydro-2′H-spiro[morpholine-2,1′-naphthalene]-4-yl)-2H-benzo[b][1,4]oxazin-3(4H)-one] the pIC50 was 5.06. In the case of O=C1COc2ccc(N3CCOC4(CCOc5ccccc54)C3)cc2N1 (stereo not drawn) [Example 73, 6-(spiro[chroman-4,2′-morpholine]-4′-yl)-2H-benzo[b][1,4]oxazin-3(4H)-one], the pIC50 was 5.20. Cc1ccc(C2(C)CN(c3ccc4c(c3)NC(=O)CO4)CCO2)cc1 (stereo not drawn) [Example 74, 6-(2-methyl-2-p-tolylmorpholino)-2H-benzo[b][1,4]oxazin-3(4H)-one] gave a pIC50 of 5.47. In the case of O=C1COc2ccc(N3CCOC(c4ccccc4)C3c3ccccc3)cc2N1 (stereo not drawn) [Example 75, 6-(2,3-diphenylmorpholino)-2H-benzo[b][1,4]oxazin-3(4H)-one], the pIC50 was 5.51.

Same assay, conditions: antagonist mode; decrease of EC80 aldosterone signal by 50%; Huh7 cells transfected with Gal4-MR-LBD and Gal4-RE-luc
Work on “(±)-2-(cis-5-(2-methoxyphenyl)-2-methylmorpholino)-6H-pyrimido[5,4-b][1,4]oxazin-7(8H)-one [Example 56]” yielded a pIC50 of 5.27.
